Assay results published in patent US7078065B2, “Composition containing asiasari radix extracts for protecting brain cells and improving memory” (priority 2001, dated 2006).

What was measured:
[1] = test system: differentiated PC12 cells; test: Cell viability (MTT) assay, AMPA-induced damage in differentiated PC12 cells; format: cell-based; conditions: AMPA 40 uM
Protocol: (§1) MTT assay is a method to measure mitochondrial redox with calorimeter and it is primarily used to know mitochondrial redox potential or cell viability (Mosmann T., J Immunol. Methods, 1983). PC 12 cells and C6 glial cells were grown in DMEM media with 10% fetal calf serum in 5% humidified CO2 atmosphere at 37° C. PC12 cells were induced to differentiation into neuronal cells by the addition of nerve growth factor (100 ng/ml). Fresh NGF was added every 48 h and experiments were conducted after NGF treatment for 7 days.
(§2) The cells were plated in 96 well plates at a density of 1×10^5 cells/well. Cells were preincubated with AMPA (40 μM) and followed by the addition of AR fractions (10 μg/ml) for 24 hrs. MTT reagent (Sigma, USA) (5 mg/ml) was made in PBS (phosphate buffered saline) and filtered. The cells were then treated with MTT (final concentration, 0.5 mg/ml) and allowed to incubate for 3 hrs at 37° C. Cells containing active mitochondria form dark blue formazan by disintegrating tetrazolium ring. The culture media were removed and the cells were subjected to lysis in the presence of […] of DMSO and […] of Sorensen glycine buffer (0.1M glycine, 0.1M NaCl, pH 10.5). The absorbance was measured with spectrophotometer at 570 nm. The ratio of absorbance of experimental groups to control groups is expressed as % cell viability.

[2] = test system: AMPA-induced depolarization in rat cortical slices; test: Grease-gap recording assay: AMPA-induced depolarization in rat cortical wedges; conditions: AMPA 40 uM for 2 min
Protocol: Cortical wedges from rats were prepared, placed in two-compartment brain bath and experiments were performed as described by Harrison and Simmonds (British J. Pharmacol. 84, 381–391, 1985). ‘Wedges’ of rat cerebral cortex were prepared from the brains of male Wistar rats (200 g). The animal is decapitated and the brain rapidly removed into chilled oxygenated (95% O2/5% CO2) artificial cerebrospinal fluid (ACSF) containing (mM): NaCl 122, NaHCO3 25, KCl 3.1, KH2PO4 0.4, CaCl2 1.3, MgSO4 1.4, D-glucose 10, (pH 7.4). […] coronal slices were taken and they were then placed in room temperature oxygenated ACSF and hemisected with a razor blade. A wedge of tissue was formed such that the dorsal cortical surface containing cerebral cortex and corpus callosum was approximately 1.5 mm wide and ventral surface was approximately 1 mm wide. The wedges were further incubated in ACSF for 2 hrs at room temperature.
Cortical wedges were placed in a two-compartment bath and a greased (high vacuum silicon grease) barrier placed such that a high-resistance seal was formed between the two compartments. Oxygenated ACSF was perfused through the two compartments separately at 2 ml/min for at least 1 hr. […] The DC potential between the two compartments was monitored via Ag/AgCl electrodes. The signal was amplified and analyzed with the aid of McLab software.

[3] = test system: C6 glial cells; test: Cell viability (MTT) assay, AMPA-induced damage in C6 glial cells; format: cell-based
Protocol: as §1, §2

## Cc1o[nH]c(=O)c1CC(N)C(=O)O (stereo not drawn) [AMPA]
[1]
  reduction in cell viability as compared to control: approximately 50%
[2]
  increase in depolarization: up to 0.79 mV
[3]
  reduction in cell viability as compared to control: approximately 35%
